{
  "source": "patent US12208072B2",
  "about": "“Compositions for removing necrotic or infected tissues from body surface lesions and from oral cavity” (DEBx Medical Holding B.V., priority 2019, dated 2025)",
  "origin": "cited, not measured here",
  "key": {"[1]": {"conditions": "for Ka1: first dissociation constant; for Ka2: second dissociation constant"}, "[2]": {"conditions": "25° C."}},
  "data": [
    {"compound": "O=C(O)CCC(=O)O", "note": "[Succinic]", "values": [
      {"measurement": "Ka1", "setting": "[1]", "value": "6.21 × 10^−5"},
      {"measurement": "Ka2", "setting": "[1]", "value": "2.31 × 10^−6"}
    ]},
    {"compound": "OB(O)O", "note": "[Boric]", "values": [
      {"measurement": "Ka1", "setting": "[1]", "value": "5.81 × 10^−10"}
    ]},
    {"compound": "O=[N+]([O-])O", "note": "[Nitric]", "values": [
      {"measurement": "pKa", "setting": "[2]", "value": "−1.4"}
    ]},
    {"compound": "O=C(O)O", "note": "[Carbonic]", "values": [
      {"measurement": "Ka1", "setting": "[1]", "value": "4.44 × 10^−7"},
      {"measurement": "Ka2", "setting": "[1]", "value": "4.69 × 10^−11"}
    ]},
    {"compound": "O=C(O)CC(O)C(=O)O", "note": "(stereo not drawn) [Malic]", "values": [
      {"measurement": "Ka1", "setting": "[1]", "value": "3.48 × 10^−4"},
      {"measurement": "Ka2", "setting": "[1]", "value": "8.00 × 10^−6"}
    ]},
    {"compound": "OCl", "note": "[Hypochlorous]", "values": [
      {"measurement": "Ka1", "setting": "[1]", "value": "3.0 × 10^−8"}
    ]},
    {"compound": "OP(O)O", "note": "[Phosphorous]", "values": [
      {"measurement": "Ka1", "setting": "[1]", "value": "3 × 10^−2"},
      {"measurement": "Ka2", "setting": "[1]", "value": "1.62 × 10^−7"}
    ]},
    {"compound": "Anilinium ion", "values": [
      {"measurement": "Ka1", "setting": "[1]", "value": "2.50 × 10^−5"}
    ]}
  ]
}
